Earlier results, collected in US8507011B2, “Method for suppressing or preventing fibrous adhesion formation using a multicomponent aqueous oxychlorine composition prepared on-site” (priority 2009, dated 2013).

Tests used:
adhesion = settings: interperitoneal infusion, rats
wound = settings: 0.01% concentration

pKa	SMILES	Adhesion suppression versus control (in words) (adhesion)	Wound irrigant activity (in words) (wound)
	CN(C)c1ccc2nc3ccc(=[N+](C)C)cc-3sc2c1 [methylene blue]	none were found between methylene blue and control	
about 7.5	OCl [hypochlorous acid]		showed promise as an effective antimicrobial wound irrigant
